# According to article PMC7023064, “Design, Synthesis, and Evaluation of Novel 2-Methoxyestradiol Derivatives as Apoptotic Inducers through an Intrinsic Apoptosis Pathway” (Biomolecules, 2020):
# Like-named read-outs stand apart in the source and are kept apart here.
# Legend:
# [1] = system: human breast cancer MDA-MB-231 cell lines; experiment: MTT cytotoxicity assay, MDA-MB-231; format: cell-based; details: mean ± SD of three experiments
# Protocol: (§1) Human breast adenocarcinoma MCF-7 cell lines, human breast cancer MDA-MB-231 cell lines, and the normal human liver L-O2 cell lines were provided by Nanjing KeyGen Biotech Co. Ltd. (Nanjing, China). MCF-7 cells were cultured in a base medium (90% RPMI-1640 and 10% FBS) at 37 °C, 5% CO2 and a saturated humidity atmosphere. MDA-MB-231 cells were cultured in a base medium (90% […] and 10% FBS) at 37 °C, 5% CO2 and a saturated humidity atmosphere. L-O2 cells were cultured in a base medium (90% DMEM and 10% FBS) at 37 °C, 5% CO2 and a saturated humidity atmosphere.
# (§2) The cytotoxicity of the tested compounds was determined using the 3-(4,5-dimethyl-2-thiazolyl)-2,5-diphenyl-2-H-tetrazolium bromide (MTT) assay. Cells were seeded in 96-well plates and incubated in a 5% CO2 incubator at 37 °C. When the cells adhered, compounds at different concentrations were added to every well. After incubation for another 72 h, MTT solution (5 mg/mL) was added into each well and cells were incubated for an additional 4 h. The viable cells were stained with MTT and scanned with an electrophotometer at 570 nm. Each concentration treatment was done in triplicate wells. The half maximal inhibitory concentration (IC50) values were estimated by fitting the inhibition data to a dose-dependent curve using a logistic derivative equation.
# [2] = system: MCF-7 and MDA-MB-231 cell lines; experiment: MTT assay, summary over tested tumor cells; format: cell-based, human; details: for selectivity towards cancerous cell lines vs healthy cell line: MCF-7 and MDA-MB-231 vs L-O2
# Protocol: as §1, §2
# [3] = biological target: T1, estradiol receptor alpha (ERα) (Homo sapiens, UniProt P03372); experiment: Immunohistochemical (IHC) analysis of ERα; format: cell-based; details: 5, 10, and 20 μM, MCF-7 cells, dose-dependent
# T1 construct: endogenous in cells; host or cells: MCF-7
# T1 sequence (P03372 1-595): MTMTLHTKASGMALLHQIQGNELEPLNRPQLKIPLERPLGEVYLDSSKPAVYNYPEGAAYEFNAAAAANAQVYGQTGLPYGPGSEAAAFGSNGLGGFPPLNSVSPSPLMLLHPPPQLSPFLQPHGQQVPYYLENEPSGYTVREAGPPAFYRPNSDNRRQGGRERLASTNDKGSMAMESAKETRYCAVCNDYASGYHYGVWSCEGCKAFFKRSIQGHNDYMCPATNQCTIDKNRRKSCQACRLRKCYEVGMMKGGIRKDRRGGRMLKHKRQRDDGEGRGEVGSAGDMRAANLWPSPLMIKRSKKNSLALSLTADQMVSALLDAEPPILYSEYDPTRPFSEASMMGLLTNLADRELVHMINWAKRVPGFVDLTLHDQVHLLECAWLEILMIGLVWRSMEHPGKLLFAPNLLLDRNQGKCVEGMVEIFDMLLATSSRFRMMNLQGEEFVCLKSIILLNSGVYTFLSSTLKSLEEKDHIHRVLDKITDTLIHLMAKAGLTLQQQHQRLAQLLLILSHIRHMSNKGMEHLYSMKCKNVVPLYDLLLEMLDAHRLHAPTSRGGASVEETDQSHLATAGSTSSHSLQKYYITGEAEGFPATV
# Protocol: MCF-7 cells were seeded in culture plates and treated with compound 11/12a (0, 5, 10, and 20 μM) for 72 h. Cells were collected and mounted on a slide, fixed for 30 min with 4% paraformaldehyde, and washed three times with PBS. 1% Triton X-100 was added to each cell sample, and it was permeabilized at room temperature for 10 min, then washed three times with PBS. Two drops of 3% H2O2-methanol solution were added to each cell section. After being blocked at room temperature for 10 min, the section was washed three times with PBS. Then, 50–100 μL of ready-to-use goat serum was added and cells were incubated for 20 min at room temperature. Before the cell section was incubated at 37 °C for 2 h in a wet box, 50–100 μL of a primary antibody (1:200 dilution) against estradiol receptor alpha (ERα) (Bs-1427R, Bioss Co. Ltd., Beijing, China) was added, and then washed three times with PBS. Subsequently, 50 μL of enhancer was added and cells were incubated for 30 min at room temperature, then washed three times with PBS. Fifty microliters of a universal IgG antibody-Fab fragment-HRP multimer was added dropwise, and the mixture was incubated at 37 °C for 30 min, then soaked and washed three times with PBS. After 2 drops of freshly prepared DAB (DAB-1031, MaXi Biotech Co. Ltd., FuZhou, China) solution were added to each cell section, the dyeing depth was observed under the microscope. […]
# [4] = system: normal human liver L-O2 cell lines; experiment: MTT cytotoxicity assay, L-O2; format: cell-based; details: mean ± SD of three experiments, No = No inhibition detected
# Protocol: as §1, §2
# [5] = system: human breast adenocarcinoma MCF-7 cell lines; experiment: MTT cytotoxicity assay, MCF-7; format: cell-based
# Protocol: as §1, §2
# MCF-7 cells = experiment: Cell cycle assay (PI staining, flow cytometry); format: cell-based, human; details: 72 h
# Protocol: MCF-7 cells at a density of 5 × 10^5 cells/well were seeded in 6-well plates and incubated at 37 °C in a humidified 5% CO2 incubator for 24 h. Exponentially growing cells were treated with compound 11/12a (0, 5, 10, and 20 μM) for 72 h. Then, the cells were harvested and fixed with 70% precooled ethanol at 4 °C for 12 h. Later, the cells were centrifuged and washed with cold PBS. 100 μL of RNase A was added, and then bathed in water for 30 min at 37 °C. Subsequently, cells were stained by 400 μL of propidium iodide (PI) for 30 min at 4 °C in the dark. Finally, cellular DNA was measured using a flow cytometry (FACS Calibur Becton-Dickinson, San Jose, California, USA).
Compound,"IC50 ([1]; Homo sapiens, MDA-MB-231, 72 h) [µM]","IC50 ([2]; Homo sapiens, MCF-7 and MDA-MB-231, read-out: IC50, anti-proliferative activity against tested tumor cells) [µM]",selectivity towards cancerous cell lines vs healthy cell line [2],"interaction with ERα (nuclear colour, IOD value) [3]","IC50 ([4]; Homo sapiens, L02, 72 h) [µM]","IC50 ([5]; Homo sapiens, MCF7, MTT, 72 h, mean ± SD of three experiments, read-out: IC50 MCF-7) [µM]","IC50 ([5]; Homo sapiens, MCF7, Table 2, mean ± SD of three experiments, read-out: IC50 for MCF-7) [µM]","IC50 ([5]; Homo sapiens, MCF7, pIC50 = −log(IC50), read-out: pIC50 for MCF-7 (converted)) [µM]",cells at the G2 phase (MCF-7 cells; 5 μM) [%],cells at the G2 phase (MCF-7 cells; 10 μM) [%],cells at the G1 phase (MCF-7 cells; 20 μM) [%],cells at the G2 phase (MCF-7 cells; 20 μM) [%],IC50 ([1]; 72 h) [µM],IC50 ([4]; 72 h) [µM],"IC50 ([5]; MTT, 72 h, mean ± SD of three experiments, read-out: IC50 MCF-7) [µM]","IC50 ([5]; Table 2, mean ± SD of three experiments, read-out: IC50 for MCF-7) [µM]",pIC50 for MCF-7 ([5]; pIC50 = −log(IC50))
"COc1cc2c(cc1O)CC[C@@H]1[C@@H]2CC[C@]2(C)[C@@H](OCCCCCCCCn3c(=O)ccn([C@@H]4O[C@H](CO)[C@@H](O)[C@H]4O)c3=O)CC[C@@H]12 [Compound 11, 17 β-[8-(1-β-D-Ribofuranosyluracil-3-yl)-Octyloxy]-2-Methoxy-Estra-1,3,5(10)-Triene-3-ol]",14 ± 1.08,3.89 to 16.7,~7 fold,specific binding,> 100,13.9 ± 0.16,13.9 ± 0.16,13.8,8.32,15.48,42.84,24.11,–,–,–,–,–
"17 β-[6-(Uracil-3-yl)-Hexyloxy]-2-Methoxy-Estra-1,3,5(10)-Triene-3-ol [Compound 12a]",–,–,about 6 fold,specific binding,–,–,–,–,7.97,13.93,54.41,22.46,13 ± 0.38,69.3 ± 4.37,11.2 ± 0.46,11.2 ± 0.46,4.95
